One substance from paper PMC5608758, “A brain-targeting lipidated peptide for neutralizing RNA-mediated toxicity in Polyglutamine Diseases” (Scientific Reports, 2017) can be followed below.

The target of experiment [1] is MJD CAA/G78 RNA. Put plainly: Isothermal titration calorimetry binding assay, expanded CAA/G RNA. The note with it: ITC; 0.7 mM P3V8 titrated into 0.5 µM MJD CAA/G78 RNA; one binding site model; mean ± S.E.M., at least 3 independent experiments. As for the experimental part: (§1) Experiments were carried out using a MicroCal iTC200 isothermal titration calorimeter (GE Healthcare) at 25 °C. Data were analyzed using the Origin® scientific plotting software version 7 (Microcal Software Inc.). All RNAs and peptides were dissolved in binding buffer (20 mM MOPS, pH 7.0; 300 mM NaCl) and 0.7 mM of peptide was titrated into 0.5 µM of RNA for each experiment. The concentration of RNA was estimated with appropriate extinction coefficients at 260 nm on a Nanodrop 2000 (Thermo Scientific). A reference power of 8 μcal/s was used with an initial 0.5 µl of injection of peptide followed by 2 µl for all subsequent titrations points with a 60 sec initial equilibrium delay and 150 sec pause between injections. The samples were stirred at a speed of 1000 rpm throughout the experiment. The thermal titration data were fitted to the ‘one binding site model’ to determine the dissociation constant (KD). Each experiment was repeated at least 3 times with consistent results obtained.
(ITC needs no label: the signal is the heat of the interaction.)

Experiment [2] deals with expanded MJD CAG78 RNA. Put plainly: Isothermal titration calorimetry binding assay, expanded CAG RNA. As for the experimental part:
as §1

Experiment [3] has as its target MJD CAG27 RNA. Put plainly: Isothermal titration calorimetry binding assay, unexpanded CAG RNA. The following applies: ITC. How it is done: as §1

As for Ac-DGKSKGIAYIEFK-NH2 [P3V8], the dissociation constant (Kd) – broadly, the concentration at which binding is half-saturated – in experiment [1] stood at 2940 ± 960 nM; in experiment [2] (ITC, 25 °C, 20 mM MOPS pH 7.0, 300 mM NaCl, 0.7 mM peptide titrated into 0.5 µM MJD CAG78 RNA, one binding site model, mean ± S.E.M., at least 3 independent experiments), 330 ± 40 nM; in experiment [3] (0.7 mM P3V8 titrated into 0.5 µM MJD CAG27 RNA, one binding site model, mean ± S.E.M., at least 3 independent experiments) it was 2190 ± 270 nM. The “improvement of binding affinity for expanded CAG RNA over P3” value in experiment [2] (ITC KD relative to P3) is given as “more than 20 fold”. In addition, the “lower affinity for unexpanded RNA or expanded CAA/G RNA than for expanded CAG RNA” value in experiment [3] (MJD CAG27 RNA or MJD CAA/G78 RNA versus MJD CAG78 RNA) is on record as 6–9 fold.
